From patent publication US8852664B2, “Neo-menthyl derivatives as flavor materials” (Symrise AG, priority 2008, dated 2014)

How the values were obtained:
Format in all cases: in vivo
[1] = Flavor profile determined by a trained panel of at least 5 testers
Method: The flavor profiles were determined by a trained panel of at least 5 testers by tasting against a 0.5% strength salt and a 0.5% strength sugar solution

[2] = Flavor comparison in American beef extract base (FIG. 1), panel of trained testers; conditions: 1 ppm of 1:1 mixture in American beef extract base vs base with 0.05 wt. % MSG
Description: This is also shown by the spider diagram appended as FIG. 1, in which an American beef extract as a base is compared with (i) such a base having 1 ppm of a 1:1 mixture of 1-((1S,2S,5R)-2-isopropyl-5-methyl-cyclohexyl)-3-(3-methoxy-propyl)-urea (1) and 1-((1R,2R,5S)-2-isopropyl-5-methyl-cyclohexyl)-3-(3-methoxy-propyl)-urea (2) added and (ii) with such a base having 0.05 wt. % of MSG (sodium glutamate) added. The observations above apply accordingly for all mixtures to be used according to the invention.
The flavor of a 0.5% American beef extract as the base (solid dark line) was compared with the aid of tasting by a panel of trained testers with the flavor firstly of such a base to which 1 ppm of a mixture of 1-((1S,2S,5R)-2-isopropyl-5-methyl-cyclohexyl)-3-(3-methoxy-propyl)-urea (1) and 1-((1R,2R,5S)-2-Isopropyl-5-methyl-cyclohexyl)-3-(3-methoxy-propyl)-urea (2) was added (solid light line), and secondly such a base to which 0.05 wt. % MSG was added (dotted line).
The testers evaluated the strength of the test directions indicated, in each case by specifying marks on a scale of from 0 (no corresponding flavor) to 8 (very strong corresponding flavor). The average values of the respective marks are represented.

[3] = Saltiness of a stock tasted against a reference series of the same stock with different salt contents; conditions: reference series 0.2%, 0.4%, 0.5% salt
Description: In another test, the saltiness of a stock having a salt content of 0.3% and 5 ppm of an equimolar mixture of 1-(3-hydroxy-propyl)-3-((1S,2S,5R)-2-isopropyl-5-methyl-cyclohexyl)-urea (3) and 1-(3-hydroxy-propyl)-3-((1R,2R,5S)-2-isopropyl-5-methyl-cyclohexyl)-urea (4) added was tasted. The testers evaluated this stock against a reference series of this same stock with salt contents of 0.2%, 0.3%, 0.4% and 0.5%. The saltiness of the stock with a salt content of 0.3% and 5 ppm of an equimolar mixture of 1-(3-hydroxy-propyl)-3-((1S,2S,5R)-2-isopropyl-5-methyl-cyclohexyl)-urea (3) and 1-(3-hydroxy-propyl)-3-((1R,2R,5S)-2-isopropyl-5-methyl-cyclohexyl)-urea (4) added was evaluated with a saltiness of 0.36% on average.
In another test, the saltiness of a stock having a salt content of 0.3% and 3 ppm of an equimolar mixture of (3-methoxy-propyl)-carbamic acid (1S,2S,5R)-2-isopropyl-5-methyl-cyclohexyl ester (9) and (3-methoxy-propyl)-carbamic acid (1R,2R,5S)-2-isopropyl-5-methyl-cyclohexyl ester (10) was tasted. The testers evaluated this stock against a reference series of this same stock with salt contents of 0.2%, 0.3%, 0.4% and 0.5%. […]

[4] = trained panel of at least 5 testers, tasting against a 0.5% strength salt and a 0.5% strength sugar solution
[5] = table of further examples, prepared from racemic neo-menthol or neo-menthylamine and tasted

Compound	Flavor Profile [1, 5]	also measured
CCOC(=O)CCCNC(=O)O[C@H]1C[C@H](C)CC[C@H]1C(C)C [(11), 4-((1S,2S,5R)-2-isopropyl-5-methyl-cyclohexyloxycarbonylamino)-butyric acid ethyl ester]	–	Flavor Profile [1, 4]: salty, umami, relatively weak in comparison with the racemate
CC(C)[C@@H]1CC[C@@H](C)C[C@@H]1NC(=S)NC1CCCC1 (racemic)	bitter, long-lasting, umami, metallic	–
CC(C)[C@@H]1CC[C@@H](C)C[C@@H]1NC(=O)NCc1ccc2c(c1)OCO2 (racemic)	salty, weakly umami	–
COCCCNC(=O)O[C@H]1C[C@H](C)CC[C@H]1C(C)C [(9), (3-methoxy-propyl)-carbamic acid (1S,2S,5R)-2-isopropyl-5-methyl-cyclohexyl ester]	–	Flavor Profile [1, 4]: umami, salty, metallic, bitter
4-((1S,2S,5R)-2-Isopropyl-5-methyl-cyclohexyloxycarbonylamino)-butyric acid ethyl ester (11)/4-((1R,2R,5S)-2-isopropyl-5-methyl-cyclohexyloxycarbonylamino)-butyric acid ethyl ester (12) [Synthesis Example 6]	–	Flavor Profile [1, 4]: bitter, salty, umami
CCOCCCNC(=O)O[C@H]1C[C@H](C)CC[C@H]1C(C)C (racemic)	rancid, musty, bitter, umami	–
3-[3-((1S,2S,5R)-2-Isopropyl-5-methyl-cyclohexyl)-ureido]-butyric acid ethyl ester (7)/3-[3-((1R,2R,5S)-2-isopropyl-5-methyl-cyclohexyl)-ureido]-butyric acid ethyl ester (8) [Synthesis Example 4]	–	Flavor Profile [1, 4]: bitter, salty, metallic, umami
COCC(C)NC(=O)O[C@H]1C[C@H](C)CC[C@H]1C(C)C (mixture of isomers)	bitter, metallic, umami	–
CC(C)[C@@H]1CC[C@@H](C)C[C@@H]1NC(=O)NC1CC1 (racemic)	bitter, long-lasting, salty, umami	–
CC(C)[C@@H]1CC[C@@H](C)C[C@@H]1OC(=O)NCC1CCCO1 (mixture of isomers)	bitter, long-lasting, umami	–
COCCCNC(=S)N[C@H]1C[C@H](C)CC[C@H]1C(C)C (racemic)	very bitter, umami	–
1-((1S,2S,5R)-2-Isopropyl-5-methyl-cyclohexyl)-3-(3-methoxy-propyl)-urea (1)/1-((1R,2R,5S)-2-isopropyl-5-methyl-cyclohexyl)-3-(3-methoxy-propyl)-urea (2) [Synthesis Example 1]	–	flavor compared with sodium glutamate (MSG) [2]: clear umami flavor very closely approximating sodium glutamate (MSG), which also significantly enhances the saltiness of the base but without tasting unpleasantly sweet; Flavor Profile [1, 4]: sweet, salty, metallic, umami
CC(C)[C@@H]1CC[C@@H](C)C[C@@H]1OC(=O)NCc1ccc2c(c1)OCO2 (racemic)	bitter, umami	–
COCCNC(=O)N[C@H]1C[C@H](C)CC[C@H]1C(C)C (racemic)	fishy, salty, umami	–
CC(C)[C@@H]1CC[C@@H](C)C[C@@H]1OC(=O)NC1CCCCC1 (racemic)	weakly sweet and weakly umami	–
CC(C)[C@@H]1CC[C@@H](C)C[C@@H]1OC(=O)NCCCO (racemic)	soapy, vegetable, asparagus, potato, mouthfeel, slightly umami	–
CCOCCCNC(=O)N[C@H]1C[C@H](C)CC[C@H]1C(C)C (racemic)	fatty, tallow, dry- dusty, long-lasting, umami	–
CC(C)[C@@H]1CC[C@@H](C)C[C@@H]1OC(=O)NC1CCCC1 (racemic)	bitter, salty	–
(3-Methoxy-propyl)-carbamic acid (1S,2S,5R)-2-isopropyl-5-methyl-cyclohexyl ester (9) and (3-methoxy-propyl)-carbamic acid (1R,2R,5S)-2-isopropyl-5-methyl-cyclohexyl ester (10) [Synthesis Example 5]	–	saltiness evaluated on average ([3]; stock with salt content 0.3% and 3 ppm added): 0.35%; Flavor Profile [1, 4]: sweet, salty, umami, slightly bitter
COCC(C)NC(=S)N[C@H]1C[C@H](C)CC[C@H]1C(C)C (mixture of isomers)	bitter, slightly umami	–

Compound	Flavor Profile [1, 5]	also measured
COCCCNC(=O)O[C@@H]1C[C@@H](C)CC[C@@H]1C(C)C [(10), (3-methoxy-propyl)-carbamic acid (1R,2R,5S)-2-isopropyl-5-methyl-cyclohexyl ester]	–	Flavor Profile [1, 4]: umami, salty, metallic, not bitter
CC(C)[C@@H]1CC[C@@H](C)C[C@@H]1OC(=O)NCCOCCO (racemic)	fatty, tallow, oily, salty, metallic	–
CC(C)[C@@H]1CC[C@@H](C)C[C@@H]1NC(=O)NCCO (racemic)	alga, roasted note, umami, sweet	–
CCOC(=O)CCCNC(=O)O[C@@H]1C[C@@H](C)CC[C@@H]1C(C)C [(12), 4-((1R,2R,5S)-2-isopropyl-5-methyl-cyclohexyloxycarbonylamino)-butyric acid ethyl ester]	–	Flavor Profile [1, 4]: salty, umami, delayed and weaker in comparison with the racemate
CC(C)[C@@H]1CC[C@@H](C)C[C@@H]1NC(=O)NC1CCCC1 (racemic)	bitter, astringent, long-lasting, salty, metallic	–
1-(3-Hydroxy-propyl)-3-((1S,2S,5R)-2-isopropyl-5-methyl-cyclohexyl)-urea (3)/1-(3-Hydroxy-propyl)-3-((1R,2R,5S)-2-isopropyl-5-methyl-cyclohexyl)-urea (4) [Synthesis Example 2]	–	saltiness evaluated on average ([3]; stock with salt content 0.3% and 5 ppm added): 0.36%; Flavor Profile [1, 4]: fishy, salty, weakly umami
CCNC(=S)N[C@H]1C[C@H](C)CC[C@H]1C(C)C (racemic)	bitter, dry-dusty, umami	–
CCNC(=O)O[C@H]1C[C@H](C)CC[C@H]1C(C)C (racemic)	cooling, umami, menthol note	–
CC(C)[C@@H]1CC[C@@H](C)C[C@@H]1OC(=O)NCCCCO (racemic)	slightly bitter, salty, umami	–
CC(C)[C@@H]1CC[C@@H](C)C[C@@H]1OC(=O)NCC1COC(C)(C)O1 (mixture of isomers)	sweet, bitter, caramel, salty	–
CC(C)[C@@H]1CC[C@@H](C)C[C@@H]1OC(=O)NC1CC1 (racemic)	bitter, salty, umami	–
CC(C)[C@@H]1CC[C@@H](C)C[C@@H]1OC(=O)Nc1ccccc1 (racemic)	bitter, dry, dusty, umami, dull	–
CC(C)[C@@H]1CC[C@@H](C)C[C@@H]1NC(=S)NC1CC1 (racemic)	bitter, mouthfeel, umami	–
CC(C)[C@@H]1CC[C@@H](C)C[C@@H]1NC(=O)NCCOCCO (racemic)	fatty, oily (fish), umami	–
1-((1S,2S,5R)-2-Isopropyl-5-methyl-cyclohexyl)-3-(2-methoxy-1-methyl-ethyl)-urea (5)/1-((1R,2R,5S)-2-isopropyl-5-methyl-cyclohexyl)-3-(2-methoxy-1-methyl-ethyl)-urea (6) [Synthesis Example 3]	–	Flavor Profile [1, 4]: long-lasting, salty, umami
COCCNC(=O)O[C@H]1C[C@H](C)CC[C@H]1C(C)C (racemic)	sweet, umami	–
CC(C)[C@@H]1CC[C@@H](C)C[C@@H]1NC(=O)NCC1COC(C)(C)O1 (mixture of isomers)	sweet, umami	–
CCOC(=O)CC(C)NC(=O)O[C@H]1C[C@H](C)CC[C@H]1C(C)C (mixture of isomers)	bitter, dry-dusty, tingling, slightly umami	–
CC(C)[C@@H]1CC[C@@H](C)C[C@@H]1NC(=O)NCC1CCCO1 (mixture of isomers)	salty, weakly umami	–
CC(C)[C@@H]1CC[C@@H](C)C[C@@H]1NC(=O)NCc1ccccc1 (racemic)	long-lasting, umami	–
